The test system of data set [1] is HCV replicon RNA (GenBank Accession No. AJ242654). Nature of the data set: HCV Replicon Assay (replicon RNA reduction and/or Fluc reporter signal). It is filed as cell-based, Hepatitis C virus. To be noted: Hepatitis C virus, 72 h, replicon-containing cells cultured with test compound for up to 3 days. Put shortly:
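Bicistronic replicon-containing cells cultured with compound for up to 3 days, with interferon as positive control. Inhibition quantified by replicon RNA reduction and/or Fluc reporter signal; IC50 values generally derived from replicon RNA reduction.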
(In antiviral work, replicon cells carry a viral genome segment that copies itself.)

The record followed here is patent US9593108B2, “Compounds and methods for antiviral treatment” (PTC Therapeutics, Inc., priority 2009, dated 2017).

For `Cc1cnc2c(C#N)c(-c3ccc(S(=O)(=O)N[C@@H](C)C(F)(F)F)cn3)n(-c3ccc(F)cn3)c2c1` [Cpd 467, 6-[3-cyano-1-(5-fluoropyridin-2-yl)-6-methyl-1H-pyrrolo[3,2-b]pyridin-2-yl]-N-[(2S)-1,1,1-trifluoropropan-2-yl]pyridine-3-sulfonamide], the melting point lay within 263 to 265 °C. Besides, in data set [1], the IC50 is below 0.5 µM.
The corresponding values for `C[C@H](NS(=O)(=O)c1ccc(-c2c(C#N)c3cc(O)cnc3n2C2CCC2)nc1)C(F)(F)F` [Cpd 275, 6-(3-cyano-1-cyclobutyl-5-hydroxy-1H-pyrrolo[2,3-b]pyridin-2-yl)-N-[(2S)-1,1,1-trifluoropropan-2-yl]pyridine-3-sulfonamide] are 240 to 242 °C and below 0.5 µM.
The matching figures for `C[C@H](NS(=O)(=O)c1ccc(-c2c(C#N)c3ncc(Cl)cc3n2C2CCC2)nc1)C(F)(F)F` [Cpd 234, 6-(6-chloro-3-cyano-1-cyclobutyl-1H-pyrrolo[3,2-b]pyridin-2-yl)-N-[(2S)-1,1,1-trifluoropropan-2-yl]pyridine-3-sulfonamide]: 201 to 205 °C and below 0.5 µM.
`CC(C)(C)NS(=O)(=O)c1ccc(-c2c(C(N)=O)c3cc(C(F)(F)F)cnc3n2-c2ccccc2)nc1` [Cpd 523, 2-[5-(tert-butylsulfamoyl)pyridin-2-yl]-1-phenyl-5-(trifluoromethyl)-1H-pyrrolo[2,3-b]pyridine-3-carboxamide] came in with a melting point of 241.8 to 243 °C. The molecule also gave a half-maximal inhibitory concentration (IC50) in data set [1] below 0.5 µM.
The corresponding values for `Cc1cnc2c(c1)c(C#N)c(-c1ccc(S(=O)(=O)N[C@@H](C)C(F)(F)F)cn1)n2CC1CCC1` [Cpd 496, 6-[3-cyano-1-(cyclobutylmethyl)-5-methyl-1H-pyrrolo[2,3-b]pyridin-2-yl]-N-[(2S)-1,1,1-trifluoropropan-2-yl]pyridine-3-sulfonamide] are 135 to 139 °C and below 0.5 µM.
The matching figures for `Cc1ccnc(-n2c(-c3ccc(S(=O)(=O)N[C@@H](C)C(F)(F)F)cn3)c(C#N)c3cc(C(F)(F)F)cnc32)n1` [Cpd 355, 6-[3-cyano-1-(4-methylpyrimidin-2-yl)-5-(trifluoromethyl)-1H-pyrrolo[2,3-b]pyridin-2-yl]-N-[(2S)-1,1,1-trifluoropropan-2-yl]pyridine-3-sulfonamide]: 176 to 180 °C and below 0.5 µM.
The matching figures for `CC(C)(C)NS(=O)(=O)c1ccc(-c2c(C#N)c3cc(C(F)(F)F)cnc3n2-c2cnccn2)cc1` [Cpd 335, N-tert-butyl-4-[3-cyano-1-(pyrazin-2-yl)-5-(trifluoromethyl)-1H-pyrrolo[2,3-b]pyridin-2-yl]benzenesulfonamide]: 190 to 192 °C and below 0.5 µM.
In turn, `CCc1cnc2c(c1)c(C#N)c(-c1ccc(S(=O)(=O)N[C@@H](C)C(F)(F)F)cn1)n2-c1nccs1` [Cpd 512, 6-[3-cyano-5-ethyl-1-(1,3-thiazol-2-yl)-1H-pyrrolo[2,3-b]pyridin-2-yl]-N-[(2S)-1,1,1-trifluoropropan-2-yl]pyridine-3-sulfonamide] displayed a melting point of 229 to 231 °C. This molecule yielded an IC50 in data set [1] below 0.5 µM.
The matching figures for `Cc1cnc2c(C#N)c(-c3ccc(S(=O)(=O)N[C@@H](C)C(F)(F)F)cc3)n(C3CCC3)c2c1` [Cpd 216, 4-(3-cyano-1-cyclobutyl-6-methyl-1H-pyrrolo[3,2-b]pyridin-2-yl)-N-[(2S)-1,1,1-trifluoropropan-2-yl]benzenesulfonamide]: 245 to 246 °C and 0.5 to 2 µM.
`N#Cc1c(-c2ccc(S(=O)(=O)NC3CC3)cn2)n(C2CCC2)c2ncc(C3CC3)cc12` [Cpd 133, 6-(3-cyano-1-cyclobutyl-5-cyclopropyl-1H-pyrrolo[2,3-b]pyridin-2-yl)-N-cyclopropylpyridine-3-sulfonamide] gave a melting point of 169 to 174 °C. The IC50 in data set [1] was below 0.5 µM.
The matching figures for `Cc1cnc2c(c1)c(C#N)c(-c1ccc(S(=O)(=O)N[C@@H](C)C(F)(F)F)cn1)n2-c1cscn1` [Cpd 507, 6-[3-cyano-5-methyl-1-(1,3-thiazol-4-yl)-1H-pyrrolo[2,3-b]pyridin-2-yl]-N-[(2S)-1,1,1-trifluoropropan-2-yl]pyridine-3-sulfonamide]: 186 to 188 °C and below 0.5 µM.
Molecule `CC[C@H](NS(=O)(=O)c1ccc(-c2c(C#N)c3cc(C)cnc3n2C2CCC2)nc1)C(F)(F)F` [Cpd 279, 6-(3-cyano-1-cyclobutyl-5-methyl-1H-pyrrolo[2,3-b]pyridin-2-yl)-N-[(2S)-1,1,1-trifluorobutan-2-yl]pyridine-3-sulfonamide] showed a melting point of 138 to 144 °C. In data set [1], this molecule gave an IC50 below 0.5 µM.
The corresponding values for `Cc1cnc2c(C#N)c(-c3ccc(S(=O)(=O)N[C@@H](C)C(F)(F)F)cn3)n(-c3ccnnc3)c2c1` [Cpd 480, 6-[3-cyano-6-methyl-1-(pyridazin-4-yl)-1H-pyrrolo[3,2-b]pyridin-2-yl]-N-[(2S)-1,1,1-trifluoropropan-2-yl]pyridine-3-sulfonamide] are 283 to 285 °C and 2 to 5 µM.
The matching figures for `CC1(NS(=O)(=O)c2ccc(-c3c(C#N)c4cc(C#N)cnc4n3C3CCC3)nc2)CC1` [Cpd 113, 6-(3,5-dicyano-1-cyclobutyl-1H-pyrrolo[2,3-b]pyridin-2-yl)-N-(1-methylcyclopropyl)pyridine-3-sulfonamide]: 198 to 200 °C and below 0.5 µM.
Molecule `C[C@H](NS(=O)(=O)c1ccc(-c2c(C#N)c3cc(N(C)C)cnc3n2C2CCC2)cc1)C(F)(F)F` [Cpd 500, 4-[3-cyano-1-cyclobutyl-5-(dimethylamino)-1H-pyrrolo[2,3-b]pyridin-2-yl]-N-[(2S)-1,1,1-trifluoropropan-2-yl]benzenesulfonamide] came in with a melting point of 198 to 200 °C. The molecule further registered an IC50 in data set [1] below 0.5 µM.
`N#Cc1c(-c2ncc(S(=O)(=O)NC(CF)CF)cn2)n(C2CCC2)c2ncc(F)cc12` [Cpd 16, 2-(3-cyano-1-cyclobutyl-5-fluoro-1H-pyrrolo[2,3-b]pyridin-2-yl)-N-(1,3-difluoropropan-2-yl)pyrimidine-5-sulfonamide] yielded a melting point of 204 to 206 °C. The molecule further showed an IC50 in data set [1] of 0.5 to 2 µM.
The matching figures for `N#Cc1c(-c2ncc(S(=O)(=O)NC(CF)CF)cn2)n(C2CCCC2)c2ncc(Cl)cc12` [Cpd 17, 2-(5-chloro-3-cyano-1-cyclopentyl-1H-pyrrolo[2,3-b]pyridin-2-yl)-N-(1,3-difluoropropan-2-yl)pyrimidine-5-sulfonamide]: 247 to 248 °C and 0.5 to 2 µM.
The corresponding values for `CCn1c(-c2ccc(S(=O)(=O)N[C@@H](C)C(F)(F)F)cn2)c(C#N)c2cc(C)cnc21` [Cpd 491, 6-(3-cyano-1-ethyl-5-methyl-1H-pyrrolo[2,3-b]pyridin-2-yl)-N-[(2S)-1,1,1-trifluoropropan-2-yl]pyridine-3-sulfonamide] are 168 to 171 °C and below 0.5 µM.
The corresponding values for `Cc1cc2c(C#N)c(-c3ccc(S(=O)(=O)N[C@@H](C)C(F)(F)F)cc3)n(C3CCC3)c2cn1` [Cpd 167, 4-(3-cyano-1-cyclobutyl-5-methyl-1H-pyrrolo[2,3-c]pyridin-2-yl)-N-[(2S)-1,1,1-trifluoropropan-2-yl]benzenesulfonamide] are 188 to 191 °C and below 0.5 µM.
`CC[C@H](NS(=O)(=O)c1ccc(-c2c(C#N)c3cc(OC)cnc3n2C2CCC2)nc1)C(F)(F)F` [Cpd 232, 6-(3-cyano-1-cyclobutyl-5-methoxy-1H-pyrrolo[2,3-b]pyridin-2-yl)-N-[(2S)-1,1,1-trifluorobutan-2-yl]pyridine-3-sulfonamide] came in with a melting point of 186 to 191 °C. Also, the IC50 in data set [1] was below 0.5 µM.
The matching figures for `NC(=O)c1c(-c2ccc(NS(=O)(=O)C3CC3)cc2)n(C2CCCCC2)c2ncc(C(F)(F)F)cc12` [Cpd 448, 1-cyclohexyl-2-{4-[(cyclopropylsulfonyl)amino]phenyl}-5-(trifluoromethyl)-1H-pyrrolo[2,3-b]pyridine-3-carboxamide]: 220 to 222 °C and 0.5 to 2 µM.
The matching figures for `CCc1cnc2c(c1)c(C#N)c(-c1ccc(S(=O)(=O)N[C@@H](C)C(F)(F)F)cc1)n2C1CCC1` [Cpd 155, 4-(3-cyano-1-cyclobutyl-5-ethyl-1H-pyrrolo[2,3-b]pyridin-2-yl)-N-[(2S)-1,1,1-trifluoropropan-2-yl]benzenesulfonamide]: 194 to 201 °C and below 0.5 µM.
The corresponding values for `Cc1ccc2c(C#N)c(-c3ccc(S(=O)(=O)NC(C)(C)C)cc3)n(C3CCC3)c2n1` [Cpd 141, N-tert-butyl-4-(3-cyano-1-cyclobutyl-6-methyl-1H-pyrrolo[2,3-b]pyridin-2-yl)benzenesulfonamide] are 194 to 200 °C and 0.5 to 2 µM.
As to `Cc1cnc2c(C#N)c(-c3ccc(S(=O)(=O)N[C@@H](C)C(F)(F)F)cn3)n(-c3cncs3)c2c1` [Cpd 478, 6-[3-cyano-6-methyl-1-(1,3-thiazol-5-yl)-1H-pyrrolo[3,2-b]pyridin-2-yl]-N-[(2S)-1,1,1-trifluoropropan-2-yl]pyridine-3-sulfonamide], the melting point fell in the range of 273 to 275 °C. In data set [1], the IC50 was 0.5 to 2 µM.
The matching figures for `COc1ccc(-n2c(-c3ccc(S(=O)(=O)N[C@@H](C)C(F)(F)F)cn3)c(C#N)c3cc(C(F)(F)F)cnc32)nc1` [Cpd 332, 6-[3-cyano-1-(5-methoxypyridin-2-yl)-5-(trifluoromethyl)-1H-pyrrolo[2,3-b]pyridin-2-yl]-N-[(2S)-1,1,1-trifluoropropan-2-yl]pyridine-3-sulfonamide]: 203 to 206 °C and 0.5 to 2 µM.

The term IC50 denotes the point on the concentration scale where inhibition reaches its midpoint. Low readings indicate greater potency, high ones weaker potency. A word on the melting point: it is the temperature, or range, at which the solid turns liquid.
